The test system of this assay is Colo205 human colon carcinoma cell line. Briefly: In vitro tumor cell proliferation assay (MTS, CellTiter 96 Aqueous One Solution). The note with it: COLO 205, Colo205 cells, 72 hours compound exposure, MTS absorbance at 490 nm, read-out: IC50 (concentration of test compound required to inhibit proliferation of 50% of the cells). Type of assay: cell-based. The method in brief:
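Colo205 cells seeded at 2000 cells/well in RPMI-1640 with 10% serum, exposed to compound for 72 h at 37 °C, 5% CO2, in a 5-point dose-response up to 10-20 μM. Viability read by MTS absorbance at 490 nm; IC50 from background-corrected percent inhibition by linear regression.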
Consider `O=C(O)c1cn(-c2cccc(CN3CCCCC3)c2)c2c(Cl)c(N3CCN(c4ncccn4)CC3)c(F)cc2c1=O` [Example 66, 8-chloro-6-fluoro-4-oxo-1-[3-(piperidin-1-yl-methyl)phenyl]-7-(4-pyrimidin-2-ylpiperazin-1-yl)-1,4-dihydroquinoline-3-carboxylic acid], for which the IC50 lay within 2 to 20 µM. The figure for `O=C(O)c1cn(-c2ccc(CN3CCCC3)cc2)c2c(Cl)c(N3CCN(c4ccc(F)cc4)CC3)c(F)cc2c1=O` [Example 2, 8-chloro-6-fluoro-7-[4-(4-fluorophenyl)-piperazin-1-yl]-4-oxo-1-[4-(pyrrolidin-1-ylmethyl)phenyl]-1,4-dihydroquinoline-3-carboxylic acid] is less than 0.5 µM. Regarding `N#Cc1ccc(N2CCN(c3c(F)cc4c(=O)c(C(=O)O)cn(-c5ccc(CN6CCCC6)c(F)c5)c4c3Cl)CC2)cc1` [Example 188, 8-chloro-7-[4-(4-cyanophenyl)-piperazine-1-yl]-6-fluoro-1-(3-fluoro-4-pyrrolidin-1-ylmethyl-phenyl)-4-oxo-1,4-dihydroquinoline-3-carboxylic acid], the IC50 was less than 0.5 µM.

For the molecule `COc1c(N2CCN(c3ncccc3C#N)CC2)c(F)cc2c(=O)c(C(=O)O)cn(-c3ccc(CN4CCCC4)cc3)c12` [Example 79, 7-[4-(3-cyanopyridin-2-yl)piperazin-1-yl]-6-fluoro-8-methoxy-4-oxo-1-[4-(pyrrolidin-1-ylmethyl)phenyl]-1,4-dihydroquinoline-3-carboxylic acid], the IC50 was less than 0.5 µM. The figure for `CCN(CC)Cc1ccc(-n2cc(C(=O)O)c(=O)c3cc(F)c(N4CCN(c5ccc(Cl)cc5)CC4)c(OC(F)(F)Cl)c32)cc1` [Example 164, 8-[chloro(difluoro)methoxy]-7-[4-(4-chlorophenyl)piperazin-1-yl]-1-{4-[(diethylamino)methyl]phenyl}-6-fluoro-4-oxo-1,4-dihydroquinoline-3-carboxylic acid] is less than 0.5 µM; for `O=C(O)c1cn(-c2ccc(CN3CCCC3)cc2)c2c(Cl)c(N3CCN(c4ccccn4)CC3)c(F)cc2c1=O` [Example 1, 8-chloro-6-fluoro-4-oxo-7-(4-pyridin-2-yl-piperazin-1-yl)-1-[4-(pyrrolidin-1-ylmethyl)phenyl]-1,4-dihydroquinoline-3-carboxylic acid] it is less than 0.5 µM; for `Cc1cccnc1N1CCN(c2c(F)cc3c(=O)c(C(=O)O)cn(-c4ccc(CN5CCCC5)cc4F)c3c2Cl)CC1` [Example 44, 8-chloro-6-fluoro-1-[2-fluoro-4-(pyrrolidin-1-ylmethyl)phenyl]-7-[4-(3-methylpyridin-2-yl)piperazin-1-yl]-4-oxo-1,4-dihydroquinoline-3-carboxylic acid] it is less than 0.5 µM. To `O=C(O)c1cn(-c2ccc(CN3CCCC3)cc2F)c2c(Cl)c(N3CCN(c4ccccc4)CC3)c(F)cc2c1=O` [Example 43, 8-chloro-6-fluoro-1-[2-fluoro-4-(pyrrolidin-1-ylmethyl)phenyl]-4-oxo-7-(4-phenylpiperazin-1-yl)-1,4-dihydroquinoline-3-carboxylic acid] belongs less than 0.5 µM.

As to `N#Cc1cccnc1N1CCN(c2c(F)cc3c(=O)c(C(=O)O)cn(-c4ccc(CN5CCCC5)cc4)c3c2Cl)CC1` [Example 7, 8-chloro-7-[4-(3-cyanopyridin-2-yl)piperazin-1-yl]-6-fluoro-4-oxo-1-[4-(pyrrolidin-1-ylmethyl)phenyl]-1,4-dihydroquinoline-3-carboxylic acid], the IC50 is less than 0.5 µM. To `CON(C)Cc1ccc(-n2cc(C(=O)O)c(=O)c3cc(F)c(N4CCN(c5ncccn5)CC4)c(Cl)c32)cc1` [Example 50, 8-chloro-6-fluoro-1-(4-{[methoxy(methyl)-amino]methyl}phenyl)-4-oxo-7-(4-pyrimidin-2-ylpiperazin-1-yl)-1,4-dihydroquinoline-3-carboxylic acid] belongs 2 to 20 µM. To `CCN(CC)Cc1ccc(-n2cc(C(=O)O)c(=O)c3cc(F)c(N4CCN(c5ccccc5F)CC4)c(OC(F)(F)F)c32)cc1` [Example 135, 1-{4-[(diethylamino)methyl]phenyl}-6-fluoro-7-[4-(2-fluorophenyl)piperazin-1-yl]-4-oxo-8-(trifluoromethoxy)-1,4-dihydroquinoline-3-carboxylic acid] belongs less than 0.5 µM; to `COc1c(N2CCN(c3ccccc3[N+](=O)[O-])CC2)c(F)cc2c(=O)c(C(=O)O)cn(-c3ccc(CN4CCCCC4)cc3)c12` [Example 91, 6-fluoro-8-methoxy-7-[4-(2-nitrophenyl)-piperazin-1-yl]-4-oxo-1-[4-(piperidin-1-ylmethyl)phenyl]-1,4-dihydroquinoline-3-carboxylic acid], 0.5 to 2 µM; to `COc1c(N2CCN(c3ccc(Cl)cc3)CC2)c(F)cc2c(=O)c(C(=O)O)cn(-c3ccc(CN4CCCCC4)cc3)c12` [Example 90, 7-[4-(4-chlorophenyl)piperazin-1-yl]-6-fluoro-8-methoxy-4-oxo-1-[4-(piperidin-1-ylmethyl)phenyl]-1,4-dihydroquinoline-3-carboxylic acid], less than 0.5 µM. Turning to `N#Cc1cccnc1N1CCN(c2c(F)cc3c(=O)c(C(=O)O)cn(-c4ccc(CN5CCCC5)cc4)c3c2OC(F)(F)F)CC1` [Example 125, 7-[4-(3-cyanopyridin-2-yl)piperazin-1-yl]-6-fluoro-4-oxo-1-[4-(pyrrolidin-1-ylmethyl)phenyl]-8-(trifluoromethoxy)-1,4-dihydroquinoline-3-carboxylic acid], the IC50 is less than 0.5 µM. The figure for `N#Cc1ccc(N2CCN(c3c(F)cc4c(=O)c(C(=O)O)cn(-c5ccc(CN6CCCC6)cc5F)c4c3Cl)CC2)nc1` [Example 47, 8-chloro-7-[4-(5-cyanopyridin-2-yl)piperazin-1-yl]-6-fluoro-1-[2-fluoro-4-(pyrrolidin-1-ylmethyl)phenyl]-4-oxo-1,4-dihydroquinoline-3-carboxylic acid] is 0.5 to 2 µM; for `CCOc1ccc(N2CCN(c3c(F)cc4c(=O)c(C(=O)O)cn(-c5ccc(CN6CCCC6)cc5)c4c3Cl)CC2)cc1` [Example 12, 8-chloro-7-[4-(4-ethoxyphenyl)piperazin-1-yl]-6-fluoro-4-oxo-1-[4-(pyrrolidin-1-ylmethyl)phenyl]-1,4-dihydroquinoline-3-carboxylic acid] it is 2 to 20 µM; for `Cc1cccnc1N1CCN(c2c(F)cc3c(=O)c(C(=O)O)cn(-c4ccc(CN5CCCC5)cc4)c3c2OC(F)(F)F)CC1` [Example 122, 6-fluoro-7-[4-(3-methylpyridin-2-yl)-piperazin-1-yl]-4-oxo-1-[4-(pyrrolidin-1-ylmethyl)phenyl]-8-(trifluoromethoxy)-1,4-dihydroquinoline-3-carboxylic acid] it is less than 0.5 µM. To `O=C(O)c1cn(-c2ccc(CN3CCCC3)cc2F)c2c(Cl)c(N3CCN(c4ccccn4)CC3)c(F)cc2c1=O` [Example 46, 8-chloro-6-fluoro-1-[2-fluoro-4-(pyrrolidin-1-ylmethyl)phenyl]-4-oxo-7-(4-pyridin-2-ylpiperazin-1-yl)-1,4-dihydroquinoline-3-carboxylic acid] belongs 0.5 to 2 µM; to `CON(C)Cc1ccc(-n2cc(C(=O)O)c(=O)c3cc(F)c(N4CCN(c5ccc(F)cc5)CC4)c(Cl)c32)cc1` [Example 51, 8-chloro-6-fluoro-7-[4-(4-fluorophenyl)-piperazin-1-yl]-1-(4-{[methoxy(methyl)amino]methyl}phenyl)-4-oxo-1,4-dihydroquinoline-3-carboxylic acid], 2 to 20 µM.

Values taken from patent US20070213339A1 (Bayer Pharmaceuticals Corporation, priority 2004, published 2007).
